Data published in patent publication US20160166543A1 (priority 2014, published 2016).
≈ marks a conversion by molar mass, not a printed value. Read-outs that look alike come from different tables or passages of the source.

Assays:
[1] = in vivo, cited from earlier work
[2] = humans; cited from earlier work
[3] = physchem; format: physicochemical
Description: There are different types of cyclodextrins available. For the purpose of this patent application, the cyclodextrin can be one or more the following—alpha cyclodextrin (alpha CD), beta cyclodextrin (beta CD), gamma cyclodextrin (gamma CD), hydroxypropyl beta cyclodextrin (HPBCD), sulfobutyl ether beta cyclodextrin (SBEBCD), and randomly methylated beta cyclodextrin. […] The concentration of cyclodextrin in the samples ranged from 0 mg/mL to 12.5 mg/mL.

[4] = rat, in vivo, po; cited from earlier work
[5] = older adults, cited from earlier work

| Compound | apparent oral clearance ([1]; po) | elimination half-life [1] | mean Cmax (maximum blood concentration) [1] | median lethal dose [2] | increase of solubility in water [3] | saturation solubility in water [3] | solubility ([3]; water, thermodynamic from solid, saturation solubility in water) | LD50 [4] | Tmax ([5]; high dose (>2 mg)) | Tmax ([5]; low dose (<0.5 mg)) |
| --- | --- | --- | --- | --- | --- | --- | --- | --- | --- | --- |
| CN(C)CCOC(C)(c1ccccc1)c1ccccn1 (stereo not shown) [Doxylamine succinate] | 217 mL/min | 10.1 h | 99 ng/mL | 50 to 500 mg/kg |  |  |  |  |  |  |
| COc1ccc2[nH]cc(CCNC(C)=O)c2c1 [Melatonin] |  |  |  |  | ~60% | 1750 µg/mL | ~1750 µg/mL (≈ 7.53 mM) | over 3200 mg/kg | 1.5 h | 1.3 h |
